{"source": "patent US20240374609A1", "about": "“NITROSAMINE IMPURITY, VARENICLINE PHARMACEUTICAL COMPOSITION CAPABLE OF REDUCING GENERATION OF NITROSAMINE IMPURITIES AND PREPARATION AND USE THEREOF” (VIWIT PHARMACEUTICALCO., LTD., priority 2021, published 2024)", "key": {"[1]": {"system": "Salmonella Typhimurium TA102", "test": "Ames test, plate incorporation method, TA102", "format": "cell-based", "procedure": "(§1) Salmonella Typhimurium TA97a, TA98, TA100, TA102, and TA1535 from MOLT OX, USA, were purchased from Shanghai Bioplus Biotech. Co., Ltd. The test was carried out using Salmonella typhimurium strains that were identified as meeting the requirements.\n(§2) Rat liver S9 from Shanghai Bioplus Biotech. Co., Ltd.\n(§3) The experiments were performed using the plate incorporation method.\n(§4) Dose selection: The experiments were performed using 5 mg, 2.5 mg, 1.25 mg, 0.625 mg, 0.3125 mg, and 0.15625 mg per dish.\n(§5) Test substance preparation: nitrosamine impurity compound P08 was prepared to a solution of 50 mg/ml with dimethyl-sulfoxide, and diluted with dimethyl-sulfoxide to give the solutions of 25 mg/ml, 12.5 mg/ml, 6.25 mg/ml, 3.125 mg/ml, and 1.5625 mg/ml successively.\n(§6) 0.1 ml of frozen bacterial solutions TA97a, TA98, TA100, TA102 and TA1535 were inoculated into the 10 ml nutrient broth mediums respectively, and cultured at 37° C. (100/min) for 10 h with shaking (100 times/min). 2.0 ml of top layer medium containing 0.5 mmol/L histidine −0.5 mmol/L biotin was dispensed into test tubes, sterilized by 0.103 MPa for 20 min, and kept in a water bath at 50° C. Then, 0.1 ml of the test substance solution, 0.5 ml of the S9 mixture (when metabolic activation was required) and 0.1 ml of the bacterial solution were added into each tube successively, mixed sufficiently, and poured into the bottom layer agar plates quickly. Then, the plates were turned to distribute even. After being placed horizontally for condensation and solidification, the plates were inverted and incubated in an incubator at 37° C. for 48 h, and the number of reverse mutation colonies per dish was counted. Three parallel plates of each dose were made, containing the spontaneous reverse mutation group, the solvent control group and the positive control group.\n(§7) The data were expressed as means±standards deviation (x±s), and SPSS 19.0 was used for calculation of data analysis.\n(§8) If the test substance tested by the above test strain is negative both with and without S9, then the test substance is determined to be mutagenic negative."}, "[2]": {"system": "Salmonella Typhimurium TA1535", "format": "cell-based", "procedure": "as §1, §2, §3, §4, §5, §6, §7, §8"}}, "note": "Where two headings read alike, the source gives them in different places.", "data": [{"smiles": "O=NN1CC2CC(C1)c1cc3nccnc3cc12", "note": "[P08]", "values": [{"measurement": "number of reverse mutation colonies per dish (x ± s)", "setting": "[1]; TA102, +S9, 156.25 μg/dish", "result": "249 ± 13"}, {"measurement": "number of reverse mutation colonies per dish (x ± s)", "setting": "[1]; TA102, +S9, 312.5 μg/dish", "result": "253 ± 24"}, {"measurement": "number of reverse mutation colonies per dish (x ± s)", "setting": "[1]; TA102, +S9, 625 μg/dish", "result": "296 ± 21"}, {"measurement": "number of reverse mutation colonies per dish (x ± s)", "setting": "[1]; TA102, +S9, 1250 μg/dish", "result": "272 ± 17"}, {"measurement": "number of reverse mutation colonies per dish (x ± s)", "setting": "[1]; TA102, +S9, 2500 μg/dish", "result": "283 ± 11"}, {"measurement": "number of reverse mutation colonies per dish (x ± s)", "setting": "[1]; TA102, +S9, 5000 μg/dish", "result": "320 ± 15"}, {"measurement": "number of reverse mutation colonies per dish (x ± s)", "setting": "[1]; TA102, −S9, 156.25 μg/dish", "result": "208 ± 13"}, {"measurement": "number of reverse mutation colonies per dish (x ± s)", "setting": "[1]; TA102, −S9, 312.5 μg/dish", "result": "237 ± 6"}, {"measurement": "number of reverse mutation colonies per dish (x ± s)", "setting": "[1]; TA102, −S9, 625 μg/dish", "result": "236 ± 20"}, {"measurement": "number of reverse mutation colonies per dish (x ± s)", "setting": "[1]; TA102, −S9, 1250 μg/dish", "result": "245 ± 4"}, {"measurement": "number of reverse mutation colonies per dish (x ± s)", "setting": "[1]; TA102, −S9, 2500 μg/dish", "result": "219 ± 11"}, {"measurement": "number of reverse mutation colonies per dish (x ± s)", "setting": "[1]; TA102, −S9, 5000 μg/dish", "result": "211 ± 8"}, {"measurement": "number of reverse mutation colonies per dish (x ± s)", "setting": "[2]; TA1535, +S9, 156.25 μg/dish", "result": "21 ± 0"}, {"measurement": "number of reverse mutation colonies per dish (x ± s)", "setting": "[2]; TA1535, +S9, 312.5 μg/dish", "result": "20 ± 3"}, {"measurement": "number of reverse mutation colonies per dish (x ± s)", "setting": "[2]; TA1535, +S9, 625 μg/dish", "result": "35 ± 7"}, {"measurement": "number of reverse mutation colonies per dish (x ± s)", "setting": "[2]; TA1535, +S9, 1250 μg/dish", "result": "34 ± 3"}, {"measurement": "number of reverse mutation colonies per dish (x ± s)", "setting": "[2]; TA1535, +S9, 2500 μg/dish", "result": "38 ± 5"}, {"measurement": "number of reverse mutation colonies per dish (x ± s)", "setting": "[2]; TA1535, +S9, 5000 μg/dish", "result": "46 ± 6"}, {"measurement": "number of colonies relative to that of the solvent control", "setting": "[2]; TA1535, no S9, 625 μg/dish", "result": "more than twice"}, {"measurement": "number of colonies relative to that of the solvent control", "setting": "[2]; TA1535, with S9, 5000, 2500, 1250 and 625 μg/dish, dose-response relationship", "result": "more than twice"}, {"measurement": "number of reverse mutation colonies per dish (x ± s)", "setting": "[2]; TA1535, −S9, 156.25 μg/dish", "result": "23 ± 2"}, {"measurement": "number of reverse mutation colonies per dish (x ± s)", "setting": "[2]; TA1535, −S9, 312.5 μg/dish", "result": "36 ± 1"}, {"measurement": "number of reverse mutation colonies per dish (x ± s)", "setting": "[2]; TA1535, −S9, 625 μg/dish", "result": "42 ± 4"}, {"measurement": "number of reverse mutation colonies per dish (x ± s)", "setting": "[2]; TA1535, −S9, 1250 μg/dish", "result": "18 ± 2"}, {"measurement": "number of reverse mutation colonies per dish (x ± s)", "setting": "[2]; TA1535, −S9, 2500 μg/dish", "result": "28 ± 2"}, {"measurement": "number of reverse mutation colonies per dish (x ± s)", "setting": "[2]; TA1535, −S9, 5000 μg/dish", "result": "20 ± 2"}]}]}
